Experimental data taken from patent publication US20170273932A1, “LYOPHILIZED COMPOSITIONS CONTAINING A METAP-2 INHIBITOR” (Zafgen, Inc., priority 2014, published 2017).
Values after ≈ are worked out from the molar mass of the structure shown.

How the values were obtained:
Type in all cases: physicochemical
[1] = Particle size of jet milled ZGN-440; settings: for D10 / D50 / D90: after jet milling
Experimental: (§1) Jet milling was conducted with ZGN-440 having an initial D90 of 211.9 μm prior to jet milling.
(§2) For FPS5, jet milled ZGN-440 was recovered in greater than 90% yield. […] The particle size generated is suitable for use with a 29-gauge to 31-gauge needle.

[2] = physchem
Text: In some embodiments, the crystalline form of Form A 6-O-(4-dimethylaminoethoxy) cinnamoyl fumagillol, free base has an IR absorption spectrum having at least one or more characteristic peaks at about 2971, 2938, 2817, 2762, 1163, 1103, 832 cm^−1. In this context, the term “about” means that the cm^−1 values can vary, e.g., up to ±5 cm^−1. In certain embodiments, the crystalline form of Form A 6-O-(4-dimethylaminoethoxy)cinnamoyl fumagillol has IR absorption spectrum shown in FIG. 5 of U.S. Pat. No. 8,349,891, U.S. Pat. No. 8,735,447, and WO 2012/064838. In some embodiments, the crystalline form (e.g., Form A) of Form A 6-O-(4-dimethylaminoethoxy)cinnamoyl fumagillol, free base is characterized by a melting point of about 83° C., for example, and characterized by a differential scanning calorimetry profile with an endotherm at about 83.1° C. […] The solubility of Form A in solvent (e.g., an aqueous solution that may include a buffer) with a pH greater or equal to about 8.0 may be less than about 0.2 mg/mL at ca. 20° C.

[3] = Polymorphic form / crystallinity after suspension, jet milling or microfluidization (XRPD); settings: for crystallinity and polymorphic form after jet milling: XRPD
Experimental: The following processes may be used to prepare an appropriate particle size of ZGN-440 (i) microfluidization; (ii) jet milling; (iii) ball milling; and suspension homogenization.
as §1, §2

[4] = Storage of Form C; settings: about three days of storage at either 5° C. or ambient temperature
Text: In other embodiments, Form C of 6-O-(4-dimethylaminoethoxy)cinnamoyl fumagillol, free base has an IR absorption spectrum having characteristic peaks at about at least one of: 831, 894, 1106, 1159, 1249, 1287, 1512, 1602, 1631, and 1707 cm^−1. In this context, the term “about” means that the cm^−1 values can vary, e.g. up to ±5 cm^−1. In certain embodiments, Form C of 6-O-(4-dimethylaminoethoxy)cinnamoyl fumagillol, free base is characterized by the IR absorption spectrum shown in FIG. 15 of U.S. Pat. No. 8,349,891, U.S. Pat. No. 8,735,447, and WO 2012/064838. […] Accordingly, in certain embodiments, the compositions described herein can include Form C and/or Form A derived from Form C.

CO[C@@H]1[C@H](OC(=O)/C=C/c2ccc(OCCN(C)C)cc2)CC[C@]2(CO2)[C@H]1[C@@]1(C)O[C@@H]1CC=C(C)C [FPS/2] showed a D10 [1] of 1.1 µm, a D50 [1] of 3 µm and a D90 [1] of 6.9 µm.

For CO[C@@H]1[C@H](OC(=O)/C=C/c2ccc(OCCN(C)C)cc2)CC[C@]2(CO2)[C@H]1[C@@]1(C)O[C@@H]1CC=C(C)C [ZGN-440, 6-O-(4-dimethylaminoethoxy) cinnamoyl fumagillol], the solubility ([2]; 20 °C, organic solvent or mixture) was roughly 25 mg/mL (≈ 50 mM), the solubility ([2]; 20 °C, pH 8, aqueous buffer) was less than 0.2 mg/mL and the solubility ([2]; 50 °C, organic solvent or mixture) was roughly 102 mg/mL (≈ 204 mM). For the same compound, the “initial D90” value ([1]; prior to jet milling) was 211.9 μm, the “crystallinity and polymorphic form after jet milling” value (“crystallinity and polymorphic form” below) [3] was “retains its crystallinity and its polymorphic structure” and the polymorphic form ([3]; suspended in different aqueous diluents (e.g., for extended times) or jet milled or microfluidized) was “no change in the polymorphic form”.

CO[C@@H]1[C@H](OC(=O)/C=C/c2ccc(OCCN(C)C)cc2)CC[C@]2(CO2)[C@H]1[C@@]1(C)O[C@@H]1CC=C(C)C [FPS/4] gave a D10 [1] of 1.5 µm, a D50 [1] of 6.5 µm and a D90 [1] of 13.2 µm.

CO[C@@H]1[C@H](OC(=O)/C=C/c2ccc(OCCN(C)C)cc2)CC[C@]2(CO2)[C@H]1[C@@]1(C)O[C@@H]1CC=C(C)C [NAT] showed a D10 [1] of 1.7 µm, a D50 [1] of 9.4 µm and a D90 [1] of 25.1 µm. The “crystallinity and polymorphic form” value [3] was “retained its crystallinity and polymorphic form”.

In the case of CO[C@@H]1[C@H](OC(=O)/C=C/c2ccc(OCCN(C)C)cc2)CC[C@]2(CO2)[C@H]1[C@@]1(C)O[C@@H]1CC=C(C)C [FPS/1], the D10 [1] is reported as 1.1 µm, the D50 [1] is reported as 2.4 µm and the D90 [1] is reported as 5.2 µm.

CO[C@@H]1[C@H](OC(=O)/C=C/c2ccc(OCCN(C)C)cc2)CC[C@]2(CO2)[C@H]1[C@@]1(C)O[C@@H]1CC=C(C)C [FPS/3] gave a D10 [1] of 1.2 µm, a D50 [1] of 3.9 µm and a D90 [1] of 9.5 µm.

Compound CO[C@@H]1[C@H](OC(=O)/C=C/c2ccc(OCCN(C)C)cc2)CC[C@]2(CO2)[C@H]1[C@@]1(C)O[C@@H]1CC=C(C)C [FPS/5] has a D10 [1] of 1.2 µm, a D50 [1] of 6.1 µm and a D90 [1] of 14.3 µm. For the same compound, the “crystallinity and polymorphic form” value [3] was “crystalline and the desired polymorph”.

With CO[C@@H]1[C@H](OC(=O)/C=C/c2ccc(OCCN(C)C)cc2)CC[C@]2(CO2)[C@H]1[C@@]1(C)O[C@@H]1CC=C(C)C [Form C, 6-O-(4-dimethylaminoethoxy) cinnamoyl fumagillol] the “conversion of crystalline form on storage” value [4] was “converts or reverts to Form A”.
